Publication PMC3216299 (Bioorganic & medicinal chemistry, 2011)

Columns and labels:
tubulin = assay: Tubulin polymerization inhibition; format: biochemical, mammalian; conditions: 100 μM
Mtb H37Rv = Mtb H37Rv growth inhibition; format: cell-based, Mycobacterium tuberculosis

Compound | Tubulin Polymerization inhibition (tubulin) | IC90 (H37Rv) fold less active than lead compound 2 (Mtb H37Rv) | IC90 (Mtb H37Rv; Mycobacterium tuberculosis, H37RV, read-out: Mtb H37Rv IC90, extrapolated from 10 point dose response curve)
CCOC(=O)Nc1nc(NC(C)CCCN(CC)CC)c2nc(-c3ccccc3)c(-c3ccccc3)nc2n1 (centres unmarked) [Compound 2, reference compound] | 24% inhibition 100 μM | – | –
CCOC(=O)Nc1nc(NC(C)CCCN(CC)CC)c2c(n1)SC(c1ccccc1)C(c1ccccc1)=N2 (centres unmarked) [Compound 37, Ethyl (4-((5-(diethylamino)pentan-2-yl)amino)-6,7-diphenyl-7H-pyrimido[4,5-b][1,4]thiazin-2-yl) carbamate] | – | 10 fold | –
CCOC(=O)Nc1cc(NCCCCN(CC)CC)c2nc(-c3ccccc3)c(-c3ccccc3)nc2n1 [Compound 17, Ethyl (8-((4-(diethylamino)butyl)amino)-2,3-diphenylpyrido[2,3-b]pyrazin-6-yl)carbamate] | 40% inhibition 100 μM | – | –
CCOC(=O)Nc1nc(NCCCCN(CC)CC)c2c(n1)SC(c1ccccc1)C(c1ccccc1)=N2 (centres unmarked) [Compound 38, Ethyl (4-((4-(diethylamino)butyl)amino)-6,7-diphenyl-7H-pyrimido[4,5-b][1,4]thiazin-2-yl)carbamate] | – | 10 fold | 18.5 µM
